In one data set the target is T1, CYP1A2 (Homo sapiens, UniProt P05177).
T1 sequence (P05177 whole entry): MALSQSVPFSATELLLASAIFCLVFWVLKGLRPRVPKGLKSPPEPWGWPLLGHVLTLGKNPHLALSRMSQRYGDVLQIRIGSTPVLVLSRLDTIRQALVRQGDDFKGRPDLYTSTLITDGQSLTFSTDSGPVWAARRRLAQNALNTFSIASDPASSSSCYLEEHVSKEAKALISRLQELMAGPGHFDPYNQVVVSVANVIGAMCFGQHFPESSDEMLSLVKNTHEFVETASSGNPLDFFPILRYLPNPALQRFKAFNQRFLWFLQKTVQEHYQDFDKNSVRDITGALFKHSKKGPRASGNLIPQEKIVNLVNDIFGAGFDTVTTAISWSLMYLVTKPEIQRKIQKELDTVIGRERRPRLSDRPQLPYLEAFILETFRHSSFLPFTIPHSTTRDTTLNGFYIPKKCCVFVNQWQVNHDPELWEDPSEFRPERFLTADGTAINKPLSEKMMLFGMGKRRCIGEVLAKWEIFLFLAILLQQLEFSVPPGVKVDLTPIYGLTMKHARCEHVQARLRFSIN
The experiment in a line: Inhibition of CYP1A2 at 10 uM. It counts as ADME.

Another data set concerns the target CYP2C9 (Homo sapiens, UniProt P11712). The experiment in a line: Inhibition of CYP2C9 at 10 uM. The class given is ADME.
The target in a further data set is CYP2D6 (Homo sapiens, UniProt P10635). The experiment in a line: Inhibition of CYP2D6 at 10 uM. It counts as ADME.
Sequence of CYP2D6 (P10635 whole entry): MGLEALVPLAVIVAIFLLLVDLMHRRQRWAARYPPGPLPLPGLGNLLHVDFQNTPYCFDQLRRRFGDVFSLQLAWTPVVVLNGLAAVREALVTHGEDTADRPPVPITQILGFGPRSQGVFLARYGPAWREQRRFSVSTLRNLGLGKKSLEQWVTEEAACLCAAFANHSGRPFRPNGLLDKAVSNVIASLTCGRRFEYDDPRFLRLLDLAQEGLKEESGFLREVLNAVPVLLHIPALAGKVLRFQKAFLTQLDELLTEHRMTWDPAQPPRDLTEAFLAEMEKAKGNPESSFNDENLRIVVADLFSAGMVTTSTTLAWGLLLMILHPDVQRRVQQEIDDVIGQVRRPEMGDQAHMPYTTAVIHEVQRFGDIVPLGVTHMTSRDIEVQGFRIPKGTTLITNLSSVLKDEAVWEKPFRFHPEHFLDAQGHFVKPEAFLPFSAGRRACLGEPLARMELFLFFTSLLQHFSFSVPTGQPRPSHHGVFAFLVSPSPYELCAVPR
A further data set deals with CYP3A4 (Homo sapiens, UniProt P08684). Kind of data set: Inhibition of CYP3A4 at 10 uM. The class given is ADME.
Sequence of CYP3A4 (P08684 whole entry): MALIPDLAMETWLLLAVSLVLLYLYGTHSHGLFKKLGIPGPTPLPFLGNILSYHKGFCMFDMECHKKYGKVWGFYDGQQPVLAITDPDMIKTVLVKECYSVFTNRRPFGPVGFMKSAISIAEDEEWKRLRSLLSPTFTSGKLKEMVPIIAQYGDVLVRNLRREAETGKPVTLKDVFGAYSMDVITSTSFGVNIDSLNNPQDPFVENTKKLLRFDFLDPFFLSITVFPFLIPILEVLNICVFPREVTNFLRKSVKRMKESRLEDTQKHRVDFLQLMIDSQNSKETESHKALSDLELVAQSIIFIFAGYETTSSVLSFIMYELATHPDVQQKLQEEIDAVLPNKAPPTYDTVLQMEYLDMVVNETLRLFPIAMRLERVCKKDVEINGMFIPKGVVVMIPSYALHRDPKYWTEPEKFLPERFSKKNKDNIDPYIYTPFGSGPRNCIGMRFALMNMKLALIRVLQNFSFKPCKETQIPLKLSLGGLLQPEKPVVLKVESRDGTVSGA
The target of data set [1] is Serine/threonine-protein kinase MRCK alpha (Homo sapiens, UniProt Q5VT25). Kind of data set: Inhibition of MRCKalpha.
Data set [2] in a line: Inhibition of p38.
For data set [3], the target named is Dual specificity protein kinase CLK1 (Homo sapiens) (UniProt P49759). The experiment in a line: Inhibition of CLK1 at 3 uM.
Sequence of Dual specificity protein kinase CLK1 (Homo sapiens) (P49759 whole entry, looked up): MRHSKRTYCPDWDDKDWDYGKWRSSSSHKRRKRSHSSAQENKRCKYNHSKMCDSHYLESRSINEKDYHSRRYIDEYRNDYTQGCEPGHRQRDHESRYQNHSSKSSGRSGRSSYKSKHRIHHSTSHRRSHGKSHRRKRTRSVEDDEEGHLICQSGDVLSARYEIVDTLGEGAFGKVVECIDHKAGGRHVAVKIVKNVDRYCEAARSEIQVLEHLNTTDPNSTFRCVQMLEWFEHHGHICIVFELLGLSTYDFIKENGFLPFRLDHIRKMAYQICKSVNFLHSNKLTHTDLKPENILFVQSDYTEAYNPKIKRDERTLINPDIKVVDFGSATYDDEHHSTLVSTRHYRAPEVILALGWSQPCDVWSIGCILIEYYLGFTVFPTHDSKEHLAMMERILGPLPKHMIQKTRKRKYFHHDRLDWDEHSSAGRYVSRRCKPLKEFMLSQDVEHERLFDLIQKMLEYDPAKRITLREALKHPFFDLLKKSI
Data set [4] concerns the target Dual specificity protein kinase CLK4 (Homo sapiens) (UniProt Q9HAZ1). Kind of data set: Inhibition of CLK4 at 3 uM.
Data set [5] addresses T2, Serine/threonine-protein kinase LATS2 (Homo sapiens) (UniProt Q9NRM7).
T2 sequence (whole entry): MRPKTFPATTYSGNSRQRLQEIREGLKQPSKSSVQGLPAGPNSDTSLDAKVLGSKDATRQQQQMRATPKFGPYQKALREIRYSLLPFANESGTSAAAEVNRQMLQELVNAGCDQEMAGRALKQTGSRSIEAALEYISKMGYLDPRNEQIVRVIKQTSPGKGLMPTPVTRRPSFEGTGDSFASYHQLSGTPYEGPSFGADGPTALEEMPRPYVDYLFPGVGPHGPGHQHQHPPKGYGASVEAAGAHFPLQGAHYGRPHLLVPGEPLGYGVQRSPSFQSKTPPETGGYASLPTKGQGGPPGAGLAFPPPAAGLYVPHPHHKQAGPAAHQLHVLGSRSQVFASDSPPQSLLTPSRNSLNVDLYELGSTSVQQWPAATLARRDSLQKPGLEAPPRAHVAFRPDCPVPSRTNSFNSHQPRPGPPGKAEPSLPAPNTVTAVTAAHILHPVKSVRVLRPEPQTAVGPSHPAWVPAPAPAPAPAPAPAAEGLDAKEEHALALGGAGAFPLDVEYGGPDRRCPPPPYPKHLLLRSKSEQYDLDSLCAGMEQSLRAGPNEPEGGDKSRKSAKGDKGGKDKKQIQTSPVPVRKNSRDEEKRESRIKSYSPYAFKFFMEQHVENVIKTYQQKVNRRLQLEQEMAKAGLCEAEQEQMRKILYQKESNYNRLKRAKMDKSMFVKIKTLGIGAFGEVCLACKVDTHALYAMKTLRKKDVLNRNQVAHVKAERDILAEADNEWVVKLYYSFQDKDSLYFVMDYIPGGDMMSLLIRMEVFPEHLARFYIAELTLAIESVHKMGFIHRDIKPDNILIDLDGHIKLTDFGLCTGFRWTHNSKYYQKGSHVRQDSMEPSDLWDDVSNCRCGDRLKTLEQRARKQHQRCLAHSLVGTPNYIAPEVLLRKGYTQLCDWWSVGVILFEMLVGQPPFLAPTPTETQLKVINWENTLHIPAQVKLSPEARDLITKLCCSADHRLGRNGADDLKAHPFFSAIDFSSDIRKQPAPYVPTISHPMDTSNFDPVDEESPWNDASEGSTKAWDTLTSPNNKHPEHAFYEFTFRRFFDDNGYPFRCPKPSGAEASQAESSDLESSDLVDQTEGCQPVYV
The experiment in a line: Inhibition of Lats2 at 3 uM.

The target in data set [6] is Serine/threonine-protein kinase MRCK beta (Homo sapiens) (UniProt Q9Y5S2). Kind of data set: Inhibition of MRCKbeta at 3 uM.
For data set [7], the target named is Serine/threonine-protein kinase 38 (Homo sapiens) (UniProt Q15208). The experiment in a line: Inhibition of NDR1 at 3 uM.
Sequence of Serine/threonine-protein kinase 38 (Homo sapiens) (Q15208 2-465 limits assumed): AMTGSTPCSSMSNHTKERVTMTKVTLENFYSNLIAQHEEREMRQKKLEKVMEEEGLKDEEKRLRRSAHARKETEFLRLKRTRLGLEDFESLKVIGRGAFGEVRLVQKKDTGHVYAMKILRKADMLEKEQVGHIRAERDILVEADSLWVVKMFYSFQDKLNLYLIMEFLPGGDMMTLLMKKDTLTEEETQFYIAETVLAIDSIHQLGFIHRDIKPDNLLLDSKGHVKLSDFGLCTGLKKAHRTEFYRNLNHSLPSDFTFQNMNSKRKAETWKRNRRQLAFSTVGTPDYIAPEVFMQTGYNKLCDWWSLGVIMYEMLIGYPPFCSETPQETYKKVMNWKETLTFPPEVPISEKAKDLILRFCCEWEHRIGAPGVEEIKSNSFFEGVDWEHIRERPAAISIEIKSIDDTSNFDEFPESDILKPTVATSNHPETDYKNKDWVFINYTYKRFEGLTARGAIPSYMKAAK
For data set [8], the target named is Phosphatidylinositol 4,5-bisphosphate 3-kinase catalytic subunit beta isoform (Homo sapiens) (UniProt P42338). Kind of data set: Inhibition of PI3Kbeta at 3 uM.
Sequence of Phosphatidylinositol 4,5-bisphosphate 3-kinase catalytic subunit beta isoform (Homo sapiens) (P42338 whole entry, looked up, canonical isoform): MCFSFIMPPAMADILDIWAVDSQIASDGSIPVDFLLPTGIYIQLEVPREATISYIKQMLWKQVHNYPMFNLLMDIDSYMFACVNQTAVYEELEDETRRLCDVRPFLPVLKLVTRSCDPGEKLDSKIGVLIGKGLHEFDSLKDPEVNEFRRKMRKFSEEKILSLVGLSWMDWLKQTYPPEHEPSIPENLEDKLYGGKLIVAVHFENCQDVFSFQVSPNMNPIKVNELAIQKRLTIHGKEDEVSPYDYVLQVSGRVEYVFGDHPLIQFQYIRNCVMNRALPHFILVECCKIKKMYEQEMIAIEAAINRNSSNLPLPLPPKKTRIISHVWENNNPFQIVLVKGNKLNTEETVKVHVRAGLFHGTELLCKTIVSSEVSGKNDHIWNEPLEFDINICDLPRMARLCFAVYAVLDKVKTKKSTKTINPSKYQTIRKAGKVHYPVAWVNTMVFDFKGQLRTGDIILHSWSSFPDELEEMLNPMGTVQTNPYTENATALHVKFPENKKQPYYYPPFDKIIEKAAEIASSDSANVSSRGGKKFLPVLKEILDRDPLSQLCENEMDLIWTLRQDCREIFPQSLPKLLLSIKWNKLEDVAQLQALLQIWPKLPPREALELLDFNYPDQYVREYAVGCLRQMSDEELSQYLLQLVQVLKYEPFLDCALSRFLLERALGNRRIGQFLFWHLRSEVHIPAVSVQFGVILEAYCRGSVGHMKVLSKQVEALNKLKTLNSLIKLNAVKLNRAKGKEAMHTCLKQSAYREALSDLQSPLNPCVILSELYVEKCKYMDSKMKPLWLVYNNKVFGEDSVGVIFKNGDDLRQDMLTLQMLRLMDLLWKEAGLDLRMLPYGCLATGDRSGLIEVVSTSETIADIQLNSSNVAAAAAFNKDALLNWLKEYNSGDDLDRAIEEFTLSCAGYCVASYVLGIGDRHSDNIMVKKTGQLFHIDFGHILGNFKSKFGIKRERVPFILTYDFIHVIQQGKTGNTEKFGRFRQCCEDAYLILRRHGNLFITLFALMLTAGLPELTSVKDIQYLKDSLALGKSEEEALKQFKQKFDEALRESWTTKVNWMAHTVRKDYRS
The target in data set [9] is Serine/threonine-protein kinase 33 (Homo sapiens) (UniProt Q9BYT3). Kind of data set: Inhibition of STK33 at 3 uM.
Sequence of Serine/threonine-protein kinase 33 (Homo sapiens) (Q9BYT3 whole entry, looked up): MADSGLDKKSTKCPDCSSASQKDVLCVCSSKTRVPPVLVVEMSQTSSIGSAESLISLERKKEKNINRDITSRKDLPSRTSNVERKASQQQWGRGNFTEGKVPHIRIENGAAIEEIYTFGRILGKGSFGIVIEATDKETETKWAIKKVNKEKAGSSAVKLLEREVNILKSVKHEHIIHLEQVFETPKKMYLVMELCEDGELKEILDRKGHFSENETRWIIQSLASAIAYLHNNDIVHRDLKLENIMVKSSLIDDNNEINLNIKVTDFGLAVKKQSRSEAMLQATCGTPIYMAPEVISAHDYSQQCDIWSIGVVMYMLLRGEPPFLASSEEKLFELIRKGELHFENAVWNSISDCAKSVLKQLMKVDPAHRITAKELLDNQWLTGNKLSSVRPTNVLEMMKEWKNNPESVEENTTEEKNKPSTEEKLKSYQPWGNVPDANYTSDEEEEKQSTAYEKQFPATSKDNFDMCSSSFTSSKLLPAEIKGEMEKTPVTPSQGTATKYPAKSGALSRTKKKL
Data set [10] is described as follows: Clearance in rat at 1 mg/kg, iv and 2 mg/kg, po. It counts as ADME, organism-based. The conditions noted are these: in vivo.
Data set [11] in a line: Volume of distribution in rat at 1 mg/kg, iv and 2 mg/kg, po. It counts as ADME, organism-based. The conditions noted are these: in vivo.
Data set [12] in a line: Oral bioavailability in rat at 2 mg/kg. It counts as ADME, organism-based. The conditions noted are these: in vivo.
Data set [13] in a line: Half life in rat at 1 mg/kg, iv and 2 mg/kg, po. The class given is ADME, organism-based. The conditions noted are these: in vivo.
The subject of a further data set is Rattus norvegicus. The experiment in a line: Reduction in intraocular pressure in Brown norway rat at 40 ug administered as drops in eye after 2 hrs. The class given is functional, organism-based.
Data set [14] concerns the target Rho-associated protein kinase 1 (Homo sapiens, UniProt Q13464).
Data set [15] addresses Mitogen-activated protein kinase 10 (Homo sapiens, UniProt P53779).
The next data set can be described thus: in vitro. The conditions noted are these: human, liver microsomes. On the technique in general: Liver microsomes are a subcellular fraction often used to study metabolism.

The source made the active and inactive calls. The rule behind the calls is not given here.

Sequence of CYP2C9 (P11712 whole entry): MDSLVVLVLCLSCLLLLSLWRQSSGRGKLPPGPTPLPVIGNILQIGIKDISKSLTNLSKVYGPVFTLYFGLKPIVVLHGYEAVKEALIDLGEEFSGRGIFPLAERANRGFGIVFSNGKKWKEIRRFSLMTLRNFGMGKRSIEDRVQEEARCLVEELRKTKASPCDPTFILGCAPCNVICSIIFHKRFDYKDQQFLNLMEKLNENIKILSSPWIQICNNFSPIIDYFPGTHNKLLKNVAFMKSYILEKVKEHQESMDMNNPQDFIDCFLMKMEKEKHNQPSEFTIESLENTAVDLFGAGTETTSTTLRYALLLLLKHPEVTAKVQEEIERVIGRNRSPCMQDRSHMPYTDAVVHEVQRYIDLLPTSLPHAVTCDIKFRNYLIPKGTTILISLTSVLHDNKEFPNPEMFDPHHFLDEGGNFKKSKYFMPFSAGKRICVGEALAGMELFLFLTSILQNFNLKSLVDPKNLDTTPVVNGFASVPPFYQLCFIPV
Sequence of Mitogen-activated protein kinase 10 (P53779 whole entry): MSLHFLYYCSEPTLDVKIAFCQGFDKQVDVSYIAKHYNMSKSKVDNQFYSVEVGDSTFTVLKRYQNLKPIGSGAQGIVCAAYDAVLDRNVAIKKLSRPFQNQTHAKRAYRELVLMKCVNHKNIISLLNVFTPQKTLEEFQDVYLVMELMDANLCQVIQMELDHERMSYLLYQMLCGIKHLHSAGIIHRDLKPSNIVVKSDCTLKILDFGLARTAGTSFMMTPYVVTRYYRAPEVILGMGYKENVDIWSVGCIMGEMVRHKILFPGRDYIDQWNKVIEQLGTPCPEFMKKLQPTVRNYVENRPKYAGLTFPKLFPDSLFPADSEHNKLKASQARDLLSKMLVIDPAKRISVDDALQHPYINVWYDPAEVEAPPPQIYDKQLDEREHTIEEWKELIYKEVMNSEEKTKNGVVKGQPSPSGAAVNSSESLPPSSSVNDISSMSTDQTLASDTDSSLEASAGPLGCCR
Sequence of Dual specificity protein kinase CLK4 (Homo sapiens) (Q9HAZ1 whole entry, looked up): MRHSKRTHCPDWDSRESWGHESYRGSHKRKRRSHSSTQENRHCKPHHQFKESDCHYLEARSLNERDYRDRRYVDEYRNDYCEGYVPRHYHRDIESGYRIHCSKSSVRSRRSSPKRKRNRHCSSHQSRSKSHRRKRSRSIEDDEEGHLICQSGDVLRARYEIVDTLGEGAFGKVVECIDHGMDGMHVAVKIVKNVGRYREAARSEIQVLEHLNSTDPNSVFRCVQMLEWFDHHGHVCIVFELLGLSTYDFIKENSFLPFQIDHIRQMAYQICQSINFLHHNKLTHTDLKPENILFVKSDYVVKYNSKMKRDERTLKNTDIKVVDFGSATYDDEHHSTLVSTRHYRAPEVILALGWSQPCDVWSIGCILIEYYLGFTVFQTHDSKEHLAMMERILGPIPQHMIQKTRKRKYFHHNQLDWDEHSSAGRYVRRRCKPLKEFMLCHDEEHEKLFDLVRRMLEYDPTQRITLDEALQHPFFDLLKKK
Description for in vitro: Half life in human liver microsome at 2 mg/mL

In the case of `COc1ccc2c(c1)C[C@H](C(=O)Nc1ccc(-c3cn[nH]c3)cc1OCC1CCN(C)CC1)NC2`, the inhibition (usually the share of the control response that was lost under treatment) at 10 µM at CYP1A2 worked out at 3%; against CYP2C9, 45%; at CYP2D6, 52%; at CYP3A4, 15%. Further, the IC50 (in general, the point on the concentration scale where inhibition reaches its midpoint) in data set [1] was 669 nM; in [2], > 20000 nM; in data set [14], 10 nM; in data set [15] it was > 20000 nM. Besides, the inhibition in data set [3] was determined as 86%; in [4], 91%; in [5] it was 75%; in data set [6] it was 77%; in data set [7] it was 72%; in data set [8] it was 74%. Also, in data set [9], the inhibition came to 66%. In addition, in data set [10], the clearance was 41 mL/min/kg. The Vd in [11] is 9.5 L/kg. Further, the bioavailability (commonly the share of a dose that reaches the circulation, judged against a reference dose that is usually intravenous) in [12] came to 0%. Further, the values for the half-life (in data set [13]; in “in vitro”) were 3.4 h and 1.02 h, respectively. In addition, the outcome in the data set with Rattus norvegicus was Active.

For the origin of these results see ChEMBL document CHEMBL1212924 (J Med Chem, 2010).
